Measured values: ChEMBL document CHEMBL1201862, “PubChem BioAssay data set” (2004)
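48-hour exposure; five concentrations; linearly interpolated endpoints. GI50 is the concentration that inhibits growth by half.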 The source made the active and inactive calls. No stated cut-off is given here; in the data, active = GI50 up to about 1.1 µM and inactive = higher.

Columns and labels:
Test in all cases: NCI-60 cell line screen, 48 h
A549 = tested on: A549
ACHN = tested on: ACHN
CAKI-1 = tested on: CAKI-1
DU-145 = tested on: DU-145
HCT-116 = tested on: HCT-116
HOP-62 = tested on: HOP-62
Hs-578T = tested on: Hs-578T
Malme-3M = tested on: Malme-3M
NCI-H23 = tested on: NCI-H23
NCI-H522 = tested on: NCI-H522
NCI/ADR-RES = tested on: NCI/ADR-RES
OVCAR-5 = tested on: OVCAR-5
SF-539 = tested on: SF-539
SNB-75 = tested on: SNB-75
SW-620 = tested on: SW-620
T47D = tested on: T47D
UACC-257 = tested on: UACC-257
UACC-62 = tested on: UACC-62
UO-31 = tested on: UO-31

Measured: GI50

COC(=O)C(Cc1ccccc1)NC(=O)CNC(=O)CSc1nnc(COc2ccc(Cl)cc2)n1-c1ccccc1 (stereo not given)
inactive: A549 17.8 µM | ACHN 14.2 µM | CAKI-1 12.7 µM | DU-145 17.5 µM | HCT-116 17.8 µM | HOP-62 17.7 µM | Hs-578T 26.5 µM | Malme-3M 18.7 µM | NCI-H23 18.7 µM | NCI-H522 2.27 µM | NCI/ADR-RES 20 µM | OVCAR-5 18.7 µM | SF-539 17.6 µM | SNB-75 17.9 µM | SW-620 20.4 µM | T47D 12.5 µM | UACC-257 15.2 µM | UACC-62 14.5 µM | UO-31 1.69 µM

CC(C)(C)OC(=O)N1C[C@H](CC(=O)OCc2ccccc2)C[C@H]1C(=O)OCC(Cl)(Cl)Cl
inactive: A549 4.69 µM | ACHN 5.01 µM | CAKI-1 3.7 µM | DU-145 > 50 µM | HCT-116 3.88 µM | HOP-62 22.8 µM | Hs-578T 8.69 µM | Malme-3M 6.28 µM | NCI-H23 4.49 µM | NCI-H522 1.62 µM | NCI/ADR-RES 2.64 µM | OVCAR-5 20.2 µM | SF-539 14.5 µM | SNB-75 10.5 µM | SW-620 11.4 µM | T47D 1.64 µM | UACC-257 5.89 µM | UACC-62 5.6 µM | UO-31 3.94 µM

COc1ccc(Nc2c(C#N)c3n(c4ccccc24)c2ccccc2[n+]3C)cc1OC
inactive: A549 3.03 µM | ACHN 1.96 µM | CAKI-1 1.93 µM | DU-145 2.81 µM | HCT-116 1.61 µM | HOP-62 3.24 µM | Hs-578T 2.86 µM | Malme-3M 3.82 µM | NCI-H23 2.94 µM | NCI-H522 3.16 µM | NCI/ADR-RES 2.71 µM | OVCAR-5 2.25 µM | SF-539 1.84 µM | SNB-75 3.43 µM | SW-620 2.44 µM | T47D 6.05 µM | UACC-257 3.78 µM | UACC-62 3.15 µM | UO-31 1.3 µM

O=C(Oc1cc(=O)c(OC(=O)c2ccccc2)co1)c1ccccc1
inactive: A549 84.7 µM | ACHN > 100 µM | CAKI-1 > 100 µM | DU-145 > 100 µM | HCT-116 65 µM | HOP-62 80 µM | Hs-578T 93.8 µM | Malme-3M 25.3 µM | NCI-H23 > 100 µM | NCI-H522 26.9 µM | NCI/ADR-RES 83.2 µM | OVCAR-5 > 100 µM | SF-539 46.5 µM | SNB-75 45.6 µM | SW-620 > 100 µM | T47D 65.3 µM | UACC-257 > 100 µM | UACC-62 > 100 µM | UO-31 > 100 µM

CC(CCC#N)(CCC#N)C(=O)CC(O)(C(F)(F)F)C(F)(F)F
inactive: A549 10.1 µM | ACHN 4.13 µM | CAKI-1 4.09 µM | DU-145 11.4 µM | HCT-116 2.8 µM | HOP-62 19.8 µM | Hs-578T 15.3 µM | Malme-3M 5.02 µM | NCI-H23 5.43 µM | NCI-H522 1.85 µM | NCI/ADR-RES 5.94 µM | OVCAR-5 12.3 µM | SF-539 3.44 µM | SNB-75 14.9 µM | SW-620 2.76 µM | T47D 4.22 µM | UACC-257 6.41 µM | UACC-62 6.19 µM | UO-31 4.08 µM

O=C(O)Cc1ccc(Oc2nc3ccccc3nc2-c2ccccc2)cc1
inactive: A549 57.8 µM | ACHN 51.4 µM | CAKI-1 63.5 µM | DU-145 69.7 µM | HCT-116 85.7 µM | HOP-62 > 100 µM | Hs-578T 41.7 µM | Malme-3M 65.8 µM | NCI-H23 63.8 µM | NCI-H522 42.1 µM | NCI/ADR-RES 99.5 µM | OVCAR-5 > 100 µM | SF-539 60.5 µM | SNB-75 > 100 µM | SW-620 63.1 µM | T47D > 100 µM | UACC-257 > 100 µM | UACC-62 24.9 µM | UO-31 36.6 µM

C=C(C)[C@@H]1CCC2=C[C@@H](OC2=O)[C@@H](C(=C)C)C2=CC(C(=O)O)=C(C1)O2
inactive: A549 > 100 µM | ACHN > 100 µM | CAKI-1 > 100 µM | DU-145 > 100 µM | HCT-116 60.4 µM | HOP-62 > 100 µM | Hs-578T > 100 µM | Malme-3M > 100 µM | NCI-H23 > 100 µM | NCI-H522 > 100 µM | NCI/ADR-RES > 100 µM | OVCAR-5 > 100 µM | SF-539 > 100 µM | SNB-75 > 100 µM | SW-620 > 100 µM | T47D 59.2 µM | UACC-257 > 100 µM | UACC-62 > 100 µM | UO-31 26 µM

O=N/N=c1\o[n-][n+](CCc2ccccc2)c1Cc1/c(=N/N=O)o[n-][n+]1CCc1ccccc1
inactive: A549 > 100 µM | ACHN 31.4 µM | CAKI-1 > 100 µM | DU-145 55.5 µM | HCT-116 50.1 µM | HOP-62 23.2 µM | Hs-578T 28.7 µM | Malme-3M 24.2 µM | NCI-H23 28.4 µM | NCI-H522 23.1 µM | NCI/ADR-RES > 100 µM | OVCAR-5 > 100 µM | SF-539 20.7 µM | SNB-75 19 µM | SW-620 89.7 µM | T47D 27.9 µM | UACC-257 > 100 µM | UACC-62 51.2 µM | UO-31 > 100 µM

N#Cc1c(NC(=S)NCc2ccccc2)sc2c1CCN(N1CCc3c(sc(NC(=S)NCc4ccccc4)c3C#N)C1)C2
inactive: A549 > 100 µM | ACHN > 100 µM | CAKI-1 > 100 µM | DU-145 > 100 µM | HCT-116 > 100 µM | HOP-62 > 100 µM | Hs-578T > 100 µM | Malme-3M > 100 µM | NCI-H23 > 100 µM | NCI-H522 > 100 µM | NCI/ADR-RES > 100 µM | OVCAR-5 > 100 µM | SF-539 > 100 µM | SNB-75 > 100 µM | SW-620 > 100 µM | T47D > 100 µM | UACC-257 > 100 µM | UACC-62 > 100 µM | UO-31 > 100 µM

O=C1OC(=O)c2cc(S(=O)(=O)c3ccc4c(c3)C(=O)OC4=O)ccc21
inactive: A549 > 100 µM | ACHN > 100 µM | CAKI-1 > 100 µM | DU-145 > 100 µM | HCT-116 > 100 µM | HOP-62 > 100 µM | Hs-578T > 100 µM | Malme-3M 24.1 µM | NCI-H23 > 100 µM | NCI-H522 > 100 µM | NCI/ADR-RES > 100 µM | OVCAR-5 > 100 µM | SF-539 > 100 µM | SNB-75 26.1 µM | SW-620 > 100 µM | T47D > 100 µM | UACC-257 > 100 µM | UACC-62 > 100 µM | UO-31 > 100 µM
